Measured values taken from US10676499B2, “3′ end caps, 5′ end caps and combinations thereof for therapeutic RNA” (NOVARTIS AG, priority 2014, dated 2020).

Each molecule was assayed against eIF4E (Homo sapiens (Human), UniProt P06730) (assay: TR-FRET assay for competitive binding of cap analogs to eIF4E). Settings: N7-alkylated GDP derivatives; single measurement unless noted (a = average over 2 measurements); read-out: AC50/μM.
Description: His tagged eIF4E protein was purchased from Fitzgerald Industries International (80R-125; Acton, Mass.) and tRNA was purchased from SIGMA (R5636; St. Louis, Mo.). A biotinylated 20 nucleotide RNA oligo (5′Phos/rGrGrA rCrCrC rCrUrC rUrCrC rCrUrC rCrCrC rCrC biotin-3′) was purchased from Integrated DNA Technologies (Coralville, Iowa). Europium labelled anti his antibody was purchased from Perkin Elmer (ADOI 10; Waltham, Mass.) and streptavidin conjugated alexa fluor 647 was purchased from Life Technologies (S32357; Grand Island, N.Y.).
The TR-FRET assay was performed in an assay buffer of PBS (pH 7.4), 0.02% Tween, and 0.1% BSA using four separate addition steps. Initially, 5 μl of His-eIF4E (10 nM) and tRNA (0.1 mg/ml) were added into a black walled 384 well small volume plate. Next, 1 al/well of freshly diluted compound was added using the Beckman Coulter Biomek FX liquid dispenser with a final DMSO concentration of 1%. The compound and eIF4E were allowed to bind for 15 minutes at room temperature. The third addition consisted of adding 4 μl of chemically capped 7mGDP imidazole mRNA-biotin (10 nM) into every well, with the exception of one column containing only buffer to use as a background control. The binding reaction was incubated for one hour at room temperature. Finally, 5 al of the europium-labeled anti-His antibody (10 nM) and streptavidin conjugated alexa fluor 647 (10 nM) TR-FRET detection reagents were added to each well and allowed to incubate at room temperature protected from light for 1 h. The plates were read on the Envision plate reader (Perkin-Elmer) to measure signals from both the Alexa fluor (665 nm) and the europium (615 nm). A ratio of the alexa fluor and europium fluorescence as a function of cap analog concentration was calculated for data analysis and data were fit to a standard EC50 inhibition curve in Graph Pad.

Chain of eIF4E (P06730 whole entry): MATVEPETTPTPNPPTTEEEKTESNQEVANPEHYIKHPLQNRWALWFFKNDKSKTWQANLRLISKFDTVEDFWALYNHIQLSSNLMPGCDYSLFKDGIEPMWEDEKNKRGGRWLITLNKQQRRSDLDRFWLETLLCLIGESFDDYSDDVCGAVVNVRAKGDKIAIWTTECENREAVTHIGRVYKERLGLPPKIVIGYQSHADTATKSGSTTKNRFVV

| SMILES | AC50 |
| --- | --- |
| Nc1nc([O-])c2c(n1)n([C@@H]1O[C@H](COP(=O)(O)OP(=O)(O)O)[C@@H](O)[C@H]1O)c[n+]2C(c1ccccc1)c1ccccc1 [Example 16] | 47.1 µM |

Same assay, conditions: N^7-alkylated GMP derivatives; competition with capped 7mGDP mRNA-biotin; single measurement unless footnoted as average; read-out: AC50

| SMILES | AC50 |
| --- | --- |
| CCc1ccc(-c2ccsc2)cc1 [Example 67] | 2.69 µM |
| CCc1ccc(-c2noc(C)n2)cc1 [Example 63] | > 100 µM |
| CCc1ccc2nonc2c1 [Example 70] | 23.7 µM |
| CCc1ccc(-c2ccc(C(C)=O)cc2)cc1 [Example 60] | > 100 µM |
| CCc1ncc(-c2ccc(F)cc2)o1 [Example 64] | > 100 µM |
| CCc1ccc(-c2cccs2)nc1 [Example 66] | 5.91 µM |
| CCc1ccc2c(cnn2C)c1 [Example 74] | > 100 µM |
| CCc1cccc2c1cnn2C [Example 72] | > 100 µM |
| CCc1nc2ccccc2n1C [Example 71] | > 100 µM |
| CCc1cc2ccccc2s1 [Example 69] | 63.2 µM |
| CCc1ccc(-c2ccccc2)cc1 [Example 65] | 29 µM |
| CCc1ccc2cnn(C)c2c1 [Example 73] | > 100 µM |
| CCc1nc2ccccc2s1 [Example 68] | 52.9 µM |
| CCc1ccc(-c2nc(C)no2)cc1 [Example 61] | 16.7 µM |
| CCc1ccc(-c2ccccc2OC)cc1 [Example 62] | > 100 µM |
